ChEMBL document CHEMBL1201862, “PubChem BioAssay data set” (2004)
Activity calls are given as the source filed them.

Tests used:
[1] = target: T1, DNA repair protein RAD52 homolog (Homo sapiens, UniProt P43351); format: functional, biochemical
T1 sequence (P43351 whole entry): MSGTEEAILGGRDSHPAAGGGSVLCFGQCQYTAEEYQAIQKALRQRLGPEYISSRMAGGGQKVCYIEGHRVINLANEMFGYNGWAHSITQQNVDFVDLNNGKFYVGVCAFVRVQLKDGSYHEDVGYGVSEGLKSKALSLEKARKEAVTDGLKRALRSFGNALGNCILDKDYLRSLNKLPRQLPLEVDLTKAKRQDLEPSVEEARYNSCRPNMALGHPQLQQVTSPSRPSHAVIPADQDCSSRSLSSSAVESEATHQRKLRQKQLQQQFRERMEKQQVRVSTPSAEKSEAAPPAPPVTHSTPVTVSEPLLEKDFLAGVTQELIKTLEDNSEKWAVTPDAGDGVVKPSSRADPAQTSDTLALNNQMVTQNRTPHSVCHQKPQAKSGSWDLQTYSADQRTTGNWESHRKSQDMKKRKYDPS

[2] = target: T2, CAAX prenyl protease 2 (Homo sapiens, UniProt Q9Y256); assay: human Rce1 protease inhibitors, dose response, biochemical, yeast membranes, quenched-peptide fluorescence, cherry-pick (AID 588849)
T2 sequence (Q9Y256 whole entry): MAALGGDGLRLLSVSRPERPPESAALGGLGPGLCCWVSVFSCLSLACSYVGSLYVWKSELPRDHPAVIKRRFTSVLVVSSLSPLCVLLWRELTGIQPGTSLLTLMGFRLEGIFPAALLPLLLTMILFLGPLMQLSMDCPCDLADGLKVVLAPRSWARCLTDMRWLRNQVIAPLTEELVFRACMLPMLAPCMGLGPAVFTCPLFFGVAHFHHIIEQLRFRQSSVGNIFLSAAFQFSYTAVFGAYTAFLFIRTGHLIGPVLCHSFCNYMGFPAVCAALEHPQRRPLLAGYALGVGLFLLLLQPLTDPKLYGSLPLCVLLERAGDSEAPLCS

[3] = target: T3, Histone-lysine N-methyltransferase NSD2 (Homo sapiens, UniProt O96028); format: biochemical
T3 sequence (O96028 whole entry): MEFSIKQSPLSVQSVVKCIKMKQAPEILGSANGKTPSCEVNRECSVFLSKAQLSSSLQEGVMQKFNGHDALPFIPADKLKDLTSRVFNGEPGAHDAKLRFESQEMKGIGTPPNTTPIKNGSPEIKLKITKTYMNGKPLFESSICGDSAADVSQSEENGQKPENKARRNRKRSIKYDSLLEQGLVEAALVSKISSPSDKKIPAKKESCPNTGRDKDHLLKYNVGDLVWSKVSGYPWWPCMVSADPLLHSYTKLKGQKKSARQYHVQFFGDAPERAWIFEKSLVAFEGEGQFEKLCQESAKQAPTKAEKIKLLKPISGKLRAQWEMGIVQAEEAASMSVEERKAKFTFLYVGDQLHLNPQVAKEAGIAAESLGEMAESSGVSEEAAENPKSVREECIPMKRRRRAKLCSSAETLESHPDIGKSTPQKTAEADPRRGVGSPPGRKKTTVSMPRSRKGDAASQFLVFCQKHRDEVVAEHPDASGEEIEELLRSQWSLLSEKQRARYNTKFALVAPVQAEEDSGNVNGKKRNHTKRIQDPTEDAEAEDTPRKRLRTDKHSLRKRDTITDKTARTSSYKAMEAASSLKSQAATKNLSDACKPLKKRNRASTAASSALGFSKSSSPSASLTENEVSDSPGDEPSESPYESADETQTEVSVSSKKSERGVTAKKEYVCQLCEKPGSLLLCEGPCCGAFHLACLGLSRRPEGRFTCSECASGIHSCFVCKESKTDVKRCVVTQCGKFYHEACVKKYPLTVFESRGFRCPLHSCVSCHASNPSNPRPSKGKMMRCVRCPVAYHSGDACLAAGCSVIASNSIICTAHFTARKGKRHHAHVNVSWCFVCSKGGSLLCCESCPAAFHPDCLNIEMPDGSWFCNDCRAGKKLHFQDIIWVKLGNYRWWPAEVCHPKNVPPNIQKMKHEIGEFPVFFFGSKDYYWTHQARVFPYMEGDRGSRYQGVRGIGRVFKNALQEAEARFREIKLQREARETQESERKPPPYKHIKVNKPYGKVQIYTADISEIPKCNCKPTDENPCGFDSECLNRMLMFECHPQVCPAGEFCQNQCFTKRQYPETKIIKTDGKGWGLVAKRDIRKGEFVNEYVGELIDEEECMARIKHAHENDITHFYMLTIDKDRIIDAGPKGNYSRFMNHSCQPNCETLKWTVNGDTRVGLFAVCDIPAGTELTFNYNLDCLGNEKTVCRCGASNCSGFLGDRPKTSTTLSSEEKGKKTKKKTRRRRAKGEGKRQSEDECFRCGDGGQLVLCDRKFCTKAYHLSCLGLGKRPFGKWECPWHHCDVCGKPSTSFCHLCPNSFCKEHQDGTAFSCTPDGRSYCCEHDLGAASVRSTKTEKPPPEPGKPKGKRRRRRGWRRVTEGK

[4] = target: T4, CAAX prenyl protease 2 (Saccharomyces cerevisiae S288c, UniProt Q03530); format: biochemical
T4 sequence (Q03530 whole entry): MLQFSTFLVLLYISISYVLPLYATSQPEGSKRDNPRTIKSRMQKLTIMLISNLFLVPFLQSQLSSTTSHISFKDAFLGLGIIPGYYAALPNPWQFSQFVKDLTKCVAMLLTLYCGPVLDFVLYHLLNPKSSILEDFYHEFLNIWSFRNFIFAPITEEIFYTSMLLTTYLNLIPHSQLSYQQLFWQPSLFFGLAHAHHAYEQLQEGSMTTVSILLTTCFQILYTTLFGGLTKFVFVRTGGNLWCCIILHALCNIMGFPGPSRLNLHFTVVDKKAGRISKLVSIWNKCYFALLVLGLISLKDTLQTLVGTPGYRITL

[5] = target: T5, High affinity choline transporter 1 (Homo sapiens, UniProt Q9GZV3); assay: CHT inhibitors, dose response, cell-based, 10-point CRC, membrane potential dye (AID 588401); format: functional;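 also: membrane potential dye fluorescence of choline-evoked depolarization via CHT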
T5 sequence (Q9GZV3 whole entry): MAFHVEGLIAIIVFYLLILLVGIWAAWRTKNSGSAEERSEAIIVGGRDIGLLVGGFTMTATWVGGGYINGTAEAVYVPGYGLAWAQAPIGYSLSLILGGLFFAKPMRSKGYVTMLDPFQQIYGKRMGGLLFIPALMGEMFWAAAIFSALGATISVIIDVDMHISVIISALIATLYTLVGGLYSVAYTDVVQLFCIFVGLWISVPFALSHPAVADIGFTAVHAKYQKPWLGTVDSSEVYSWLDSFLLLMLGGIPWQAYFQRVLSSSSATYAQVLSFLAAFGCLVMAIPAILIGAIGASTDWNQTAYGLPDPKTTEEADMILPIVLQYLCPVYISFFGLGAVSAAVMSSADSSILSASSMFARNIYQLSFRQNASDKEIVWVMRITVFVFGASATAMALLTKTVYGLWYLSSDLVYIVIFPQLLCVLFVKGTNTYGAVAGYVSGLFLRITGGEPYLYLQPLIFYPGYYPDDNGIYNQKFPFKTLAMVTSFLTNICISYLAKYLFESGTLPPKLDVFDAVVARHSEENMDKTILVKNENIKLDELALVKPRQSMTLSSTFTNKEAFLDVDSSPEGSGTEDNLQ

[6] = target: Troponin, cardiac muscle (Homo sapiens, UniProt P19429+P45379+P63316); assay: Fluorescence-based biochemical high throughput dose response assay for activators of the calcium sensitivity of cardiac Regulated Thin Filaments (RTF). [Related pubchem assays (depositor defined):AID493008, AID493018, AID504382, AID504383]; format: protein-complex assay
[7] = target: T6, Polyadenylate-binding protein 1 (Homo sapiens, UniProt P11940); assay: PABP1 MLLE–PAM2 binding inhibitor potency, dose response, biochemical, fluorescence polarization, FITC-PAM2 peptide (AID 602259); format: functional; conditions: read-out: IC50_Mean
T6 sequence (P11940 whole entry): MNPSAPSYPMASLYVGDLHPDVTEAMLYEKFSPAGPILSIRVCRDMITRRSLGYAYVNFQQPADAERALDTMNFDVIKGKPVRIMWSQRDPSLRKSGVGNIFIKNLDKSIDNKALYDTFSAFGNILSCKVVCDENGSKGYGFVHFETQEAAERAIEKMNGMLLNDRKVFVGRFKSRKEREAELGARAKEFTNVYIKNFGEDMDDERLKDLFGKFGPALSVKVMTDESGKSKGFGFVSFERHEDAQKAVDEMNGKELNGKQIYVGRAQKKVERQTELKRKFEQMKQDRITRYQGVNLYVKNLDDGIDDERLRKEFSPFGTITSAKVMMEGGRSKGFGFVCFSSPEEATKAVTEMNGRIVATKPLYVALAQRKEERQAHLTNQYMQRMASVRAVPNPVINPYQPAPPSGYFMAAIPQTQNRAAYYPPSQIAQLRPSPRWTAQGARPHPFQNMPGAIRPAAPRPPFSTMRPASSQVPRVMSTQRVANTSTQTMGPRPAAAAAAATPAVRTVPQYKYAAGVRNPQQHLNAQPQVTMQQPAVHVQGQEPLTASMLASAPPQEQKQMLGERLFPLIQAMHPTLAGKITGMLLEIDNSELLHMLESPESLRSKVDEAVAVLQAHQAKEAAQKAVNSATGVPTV

[8] = target: T6, Polyadenylate-binding protein 1; assay: PABP1 MLLE–PAM2 interaction inhibitors, dose response, miRNA deadenylation inhibitor project, biochemical, fluorescence polarization, Cy5-PAM2 peptide, secondary (AID 602260); format: functional; conditions: read-out: IC50_Mean
[9] = target: T5, High affinity choline transporter 1; assay: CHT inhibitors, dose response, cell-based, 5-point CRC, membrane potential dye (AID 504840); format: functional
[10] = target: T7, Rac GTPase-activating protein 1 (Homo sapiens, UniProt Q9H0H5); assay: MgcRacGAP GTPase-activating activity inhibitors, confirmation, biochemical, ADP Hunter fluorescence, primary and confirmatory (AID 624330); format: functional
T7 sequence (Q9H0H5 whole entry): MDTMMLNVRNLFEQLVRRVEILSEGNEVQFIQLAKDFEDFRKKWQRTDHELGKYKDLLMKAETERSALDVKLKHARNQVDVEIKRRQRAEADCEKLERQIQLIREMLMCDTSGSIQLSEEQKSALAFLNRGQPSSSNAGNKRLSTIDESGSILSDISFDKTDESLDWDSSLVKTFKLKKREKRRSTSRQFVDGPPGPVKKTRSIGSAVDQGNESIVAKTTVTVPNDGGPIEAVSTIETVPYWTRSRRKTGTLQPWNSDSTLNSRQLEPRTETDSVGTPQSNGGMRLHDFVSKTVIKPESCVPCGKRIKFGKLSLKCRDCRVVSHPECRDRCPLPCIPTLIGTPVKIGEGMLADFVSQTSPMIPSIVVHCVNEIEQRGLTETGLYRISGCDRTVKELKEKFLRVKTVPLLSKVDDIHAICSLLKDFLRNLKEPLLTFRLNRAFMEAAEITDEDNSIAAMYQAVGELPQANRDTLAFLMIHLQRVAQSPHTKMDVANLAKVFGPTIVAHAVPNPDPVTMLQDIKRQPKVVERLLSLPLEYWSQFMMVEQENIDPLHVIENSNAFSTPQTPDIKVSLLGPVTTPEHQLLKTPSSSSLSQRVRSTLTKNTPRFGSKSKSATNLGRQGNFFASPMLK

[11] = target: Heat shock protein HSP 90-alpha (Homo sapiens, UniProt P07900); format: functional, organism-based
[12] = target: Melanin-concentrating hormone receptor 1 (Homo sapiens, UniProt Q99705); assay: Late-stage fluorescence-based counterscreen for antagonists of the G-protein coupled receptor 7 (GPR7): cell-based dose response assay to identify antagonists of the melanin-concentrating hormone receptor 1 (MCHR1) Set 5.; format: functional
Melanin-concentrating hormone receptor 1, sequence (Q99705 whole entry): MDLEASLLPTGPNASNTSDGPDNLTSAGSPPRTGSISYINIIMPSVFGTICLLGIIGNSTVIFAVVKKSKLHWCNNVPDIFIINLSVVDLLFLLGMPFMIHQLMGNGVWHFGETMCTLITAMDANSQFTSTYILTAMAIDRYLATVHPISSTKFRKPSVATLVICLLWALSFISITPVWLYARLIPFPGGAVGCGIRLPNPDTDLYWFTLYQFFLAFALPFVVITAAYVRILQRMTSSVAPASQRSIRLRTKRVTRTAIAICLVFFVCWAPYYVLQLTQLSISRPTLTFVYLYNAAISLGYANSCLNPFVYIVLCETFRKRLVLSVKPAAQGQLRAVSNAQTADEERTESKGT

[13] = target: T8, Apoptotic protease-activating factor 1 (Homo sapiens, UniProt O14727); assay: SAR analysis of small molecule Activators of Apaf-1 in a Fluorescent assay.; format: functional; conditions: read-out: EC50_Mean;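 also: caspase-3 cleavage of fluorogenic Rh110 DEVD substrate downstream of apoptosome activation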
T8 sequence (O14727 whole entry): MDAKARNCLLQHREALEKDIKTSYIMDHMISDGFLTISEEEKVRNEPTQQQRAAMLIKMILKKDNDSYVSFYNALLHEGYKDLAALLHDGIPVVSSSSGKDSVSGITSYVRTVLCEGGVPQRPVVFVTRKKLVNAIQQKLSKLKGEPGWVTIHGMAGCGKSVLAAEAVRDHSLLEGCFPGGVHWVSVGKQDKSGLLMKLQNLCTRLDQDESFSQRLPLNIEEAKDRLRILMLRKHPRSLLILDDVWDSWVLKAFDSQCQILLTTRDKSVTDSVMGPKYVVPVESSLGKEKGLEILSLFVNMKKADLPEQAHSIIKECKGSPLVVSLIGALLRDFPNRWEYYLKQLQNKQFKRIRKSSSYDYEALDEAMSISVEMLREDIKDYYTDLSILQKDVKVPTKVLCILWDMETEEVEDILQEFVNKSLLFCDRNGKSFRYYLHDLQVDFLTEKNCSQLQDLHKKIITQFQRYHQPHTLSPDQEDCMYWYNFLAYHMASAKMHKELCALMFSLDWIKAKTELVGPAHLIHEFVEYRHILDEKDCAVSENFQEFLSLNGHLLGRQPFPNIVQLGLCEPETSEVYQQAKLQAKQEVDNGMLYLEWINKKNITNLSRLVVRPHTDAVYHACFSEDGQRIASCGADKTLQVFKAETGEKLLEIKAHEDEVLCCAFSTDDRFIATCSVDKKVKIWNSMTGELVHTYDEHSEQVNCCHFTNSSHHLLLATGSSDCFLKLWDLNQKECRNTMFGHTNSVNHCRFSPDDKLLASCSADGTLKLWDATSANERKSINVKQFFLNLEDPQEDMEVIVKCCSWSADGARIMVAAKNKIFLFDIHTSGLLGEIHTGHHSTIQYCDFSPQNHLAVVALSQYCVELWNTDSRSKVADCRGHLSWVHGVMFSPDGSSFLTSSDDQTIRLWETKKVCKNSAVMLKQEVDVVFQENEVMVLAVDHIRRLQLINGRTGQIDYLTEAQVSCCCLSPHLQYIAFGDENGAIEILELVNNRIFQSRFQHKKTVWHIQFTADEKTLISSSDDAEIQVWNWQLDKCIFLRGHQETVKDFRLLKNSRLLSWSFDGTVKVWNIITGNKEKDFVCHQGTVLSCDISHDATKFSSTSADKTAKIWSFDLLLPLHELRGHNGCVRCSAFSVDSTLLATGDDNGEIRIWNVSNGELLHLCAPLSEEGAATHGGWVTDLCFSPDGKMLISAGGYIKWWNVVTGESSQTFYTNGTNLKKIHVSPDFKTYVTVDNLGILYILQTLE

SMILES: CCN(CC)CCCN(Cc1cc2cc3c(cc2[nH]c1=O)OCO3)C(=S)NCCCN(C)C
- AC50 [1]: 5.22 µM (active)
- AC50 [2]: 10.5 µM (active)
- AC50 [3]: 9.07 µM (active)
- AC50 [4]: 16.4 µM (active)

SMILES: CN1c2ccccc2C(O)=C(C(S)=Nc2ccc(F)c(Cl)c2)S1(=O)=O
- IC50 [5]: 3.55 µM (active)
- EC50 [6]: > 71.5 µM (inactive)
- IC50 [7]: > 66 µM (inactive)
- IC50 [8]: > 66 µM (inactive)
- IC50 [9]: 4.79 µM (active)

SMILES: CCC(Oc1ccccc1)C(=O)Nc1ccc(S(=O)(=O)NCC2CCCO2)cc1 (centres undefined)
- IC50 [5]: 11.2 µM (active)
- IC50 [9]: 10.5 µM (active)

SMILES: O=C(NCC(c1ccco1)N1CCCCC1)c1cccc(NS(=O)(=O)c2ccc(Br)cc2)c1 (centres undefined)
- IC50 [5]: 3.36 µM (active)
- IC50 [9]: 6.92 µM (active)

SMILES: O=[S@]1Oc2ccccc2-c2ccccc21
- IC50 [10]: 76 µM (active)
- AC50 [11]: 2.2 µM (active)

SMILES: COc1cc(Oc2c(Cl)cnn(Cc3cccc4ccccc34)c2=O)cc(OC)c1OC
- IC50 [12]: 3.22 µM (active)

SMILES: O=C1CC2(CC(c3ccc(F)cc3)=NO2)C(=O)N1c1cccc(Cl)c1 (centres undefined)
- EC50 [13]: > 100 µM (inactive)

SMILES: COc1ccc(Oc2c(Cl)cnn(-c3nc4ccccc4c(=O)c4ccccc34)c2=O)cc1
- IC50 [12]: 0.707 µM (active)

SMILES: COc1cc(Cl)c(C)cc1NC(=O)CCS(=O)(=O)c1ccc(Cl)cc1
- EC50 [13]: > 100 µM (inactive)
